Values quoted from earlier work, collected in patent US7696242B2, “Hepatitis C inhibitor peptide analogs” (Boehringer Ingelheim International GmbH, priority 2004, dated 2010).

Tested on: hepatitis C virus
Conditions: two day clinical trial, patients infected with the hepatitis C virus

Structure (SMILES): COc1ccc2c(O[C@@H]3C[C@H]4C(=O)N[C@]5(C(=O)O)C[C@H]5/C=C\CCCCC[C@H](NC(=O)OC5CCCC5)C(=O)N4C3)cc(-c3csc(NC(C)C)n3)nc2c1 [BILN 2061]
- reduction of viral loads in patients: effective in rapidly reducing viral loads
